Measurements as given in patent publication US7157092B1, “Acyl pseudodipeptides, preparation method and pharmaceutical compositions containing same” (Om Pharma, priority 1998, dated 2007).
Where two headings read alike, the source gives them in different places.

Columns and labels:
[1] = test system: limulus amoebocyte lysate (LAL); experiment: Chromogenic Limulus Amoebocyte Lysate (LAL) endotoxicity test; type: biochemical; details: for LAL activity in EU/mg: mean ± standard deviation
Experimental: Endotoxicity was determined by a chromogenic Limuls Amoebocyte Lysate test (Chromogenic LAL of Charles River Endosafe, batch # EK412E, Charleston, USA). This test is based on activation by a lipopolysaccharide (LPS) or structurally analogous products, of an enzymatic cascade present in LAL.
The enzymatic reaction is conducted at 37° C. and the time-course chromogen formation is measured at 405 nm. In the final stage of this time-course determination assay, the time required to achieve an OD of 0.2 unit is recorded and the endotoxic activity is calculated based on an LPS standard (standard curve).
Results are expressed in EU (Endotoxin Unit) in relation to a standardized preparation of E. coli lipolysaccharides. For this series of assays, 1 EU corresponds to […] of LPS equivalent.
It is mandatory to compare the quantitative assay of the pyrogen content with a given well standardized single series of experiments.

[2] = test system: Pb CS His6-242-310 antigen; experiment: Murine immunization with Pb CS His6-242-310 peptide: specific antibody titer (ELISA); type: in vivo, BALB/c mice; details: 0.05 mg adjuvant + 0.02 mg antigen s.c.; for serological response following three shots: ELISA 2 weeks after third shot, FIG. 15; for anti-Pb CS His6-242-310 antibody titer after one single shot: ELISA 3 weeks after first shot, FIG. 13; for serological response after two shots: ELISA 4 weeks after second shot, FIG. 14
Experimental: Antigen: Pb CS([…] Chem., 8: (1979) 350–341).
Serum sampling: Blood sampling is conducted at weeks 0, 3, 7 and 9. Blood is allowed to stand for 6 min. at 37° C., then is kept overnight at 4° C. Serum is subsequently frozen at −80° C. until time of antibody assay.
Assay of antibodies specifically raised against Pb Cs His6 242-310 antigen is performed by ELISA. Binding of antigen is done in 96-well microtiter plates (Maxisorp F96, Nunc, DK) by conducting overnight incubation in a moist chamber at 4° C. with each well containing 0.1 ml of PBS (phosphate buffered saline) containing 0.001 mg/ml of Pb CS His6242-310 antigen. Blocking of the microtiter plate is performed with PBS containing 1% of bovine serum albumin (BSA, Fluka, Switzerland). Plates are washed with PBS containing 0.05% Tween 20 (Sigma, St. Louis, Mo., USA). Serum samples collected at 0, 3, 7 and 9 weeks are serially diluted with dilution buffer (PBS containing 2.5% of skimmed milk powder and 0.05% of Tween 20), then transferred into a microtiter plate and allowed to stand for 1 hr. at room temperature (RT). Plates are then washed with PBS, a diluted solution containing mouse polyclonal anti-immunoglobulin coupled to alkaline phosphatase (Sigma, St. Louis, Mo., USA) is then dispensed into those plates and incubated for 1 hr. at RT. […] Absorbance at 405 nm is read with a microtiter plate reader (Dynatech 25000 ELISA reader, Ashford, Middlesex, UK), each serum sample is measured in duplicate. Results stand for the mean of all measurements relating to mice in each group.

ovalbumin = experiment: Subcutaneous immunization with ovalbumin antigen: specific serum immunoglobulins (ELISA); type: in vivo, BALB/c mice; details: for adjuvant effect on titer of antibodies specifically raised against ovalbumin: IgG1 and IgG2a subclasses, after one or two injections, FIGS. 25-27; for Immunoglobulins specifically raised against ovalbumin of IgG1 subclass / Immunoglobulins specifically raised against ovalbumin of IgG2a subclass / Immunoglobulins specifically raised against ovalbumin of IgM subclass: s.c. injections days 0 and 14, ovalbumin 50 μg, adjuvant 50 μg per injection, ± SD
Experimental: To this end, 50 BALB/c mice (females, aged 8 weeks at the beginning of treatment) were divided into 5 groups as follows:
Antigen: An ovalbumin stock solution is prepared at a concentration of 0.5 mg/ml in 0.9% NaCl.
The negative control consists of a 0.9% NaCl solution without antigen.
Antigen-Adjuvant mixture: Adjuvants are allowed to stand for 20 minutes at 37° C. before vortex treatment for 3 minutes. Then the antigen and (0.9%) NaCl are added as specified in the above Table, and the antigen/adjuvant mixture is vortexed briefly before placing it on a rotary stirrer for 15 minutes at room temperature, then the whole mixture is vortexed for 3 minutes.
Immunization regimen: Injections are scheduelled on days 0 and 14. The mixtures stated in the preceeding table are administered by subcutaeous route (75 μl on the side, 150 μl in total per animal). Blood sampling is scheduelled on days 14 and 28 (orbital puncture).
Assay for anti-ovalbumin immunoglobulins: The following serum Immunolglobulins which are specifically directed against ovalbumin are assayed in duplicate by ELISA: IgG1, IgG2a, and IgM. Briefly stated, microtiter plates (NUNC Immunoplate, Roskilde, DK) are incubated (overnight coating) at 40C together with 100 μl ovalbumin (0.5 μg) in bicarbonate buffer pH 9.6). After washing with 0.5% Tween-20 (Merck Hohenbrunn, D), sera are diluted 50-, 200- and 800-fold (diluting solution: phosphate buffered saline (PBS)+1% bovine serum albumin (BSA, Sigma, St. Louis, Mo., USA)+0.02% Tween-20)). 100 μl of each dilute serum sample are added to the wells. Incubation lasts 45 minutes at 37° C.
After a second washing step, IgG1, IgG2a and IgM specifically directed to ovalbumin are incubated for 30 minutes at 37° C. together with 100 μl of anti-IgG1 antibodies (anti-mouse rat antibody)-peroxydase conjugate (Serotec, Oxford, UK), IgG2a-peroxydase conjugate (Pharmingen, San Diego, Calif., USA) and IgM-biotin conjugate (Pharmingen, San Diego, Calif., USA), diluted beforehand in PBS/BSA/Tween buffer (250-, 1000-, 500-fold dilutions, respectively). For IgM, after an extra washing step, a 3rd incubation step is required (30 min. at 37° C.) with a 1:100 dilute solution of streptavidin-peroxydase conjugate (Dako, Glostrup, DK).
After the washing step, 100 μl of a phenylene 1,2-diamine solution (OPD, Merck, Darmstadt, GFR) are added to detect peroxydase-coupled anti-IgG1 and anti-IgG2 secondary antibodies (whereas for IgM, the reagent being used is 3′, 3′, 5′,5′-tetramethylbenzidine (TMB, Sigma, St. Louis, Mo., USA). After a 20 minute incubation period at room temperature, the reaction is stopped by adding 100 μl of 2N H2SO4. Absorbance values are read at 490 nm with a Bio-Rad 3550 model plate reader
Results of each reading at 490 nm are given in arbitrary units (A.U.) per ml. This is achieved by comparing each sample with a standard prepared from different dilutions of a sample pool collected from group B at day 28 (animals injected with ovalbumin alone). As clearly understood by this term, the sample pool diluted 50-fold is at a concentration of 1000 A.U./ml. Individual results are then corrected for the corresponding dilution factor (50, 200, or 800 times). Only the mean values of each group and the standard deviation (SD) are herein reported.

LmCPb antigen = type: in vivo, CBA mice; details: for extent of proliferation, times higher than cultures from mice administered antigen alone (without adjuvant): in presence of LmCPb (15 μg/ml)
[3] = 2 injections LmCPb 3–5 μg with 2×50 μg OM adjuvant or 200 μg BCG, in vitro: No stimulant
[4] = 2 injections LmCPb with adjuvant, in vitro: Amastigotes 2 × 10^−6/ml
[5] = 2 injections LmCPb with adjuvant, in vitro: Amastigotes 6 × 10^−6/ml
[6] = 2 injections LmCPb with adjuvant, in vitro: Amastigotes 17 × 10^−6/ml
[7] = 2 injections LmCPb with adjuvant, in vitro: Con A 5 μg/ml
[8] = 2 injections LmCPb with adjuvant, in vitro: LmCPb 0.6 μg/ml
[9] = 2 injections LmCPb with adjuvant, in vitro: LmCPb 1.7 μg/ml
[10] = 2 injections LmCPb with adjuvant, in vitro: LmCPb 5 μg/ml
[11] = 2 injections LmCPb with adjuvant, in vitro: LmCPb 15 μg/ml

SMILES | LAL activity in LPS equivalents [1] | LAL activity in EU/mg [1] | serological response following three shots [2] | anti-Pb CS His6-242-310 antibody titer after one single shot [2] | serological response after two shots [2] | adjuvant effect on titer of antibodies specifically raised against ovalbumin (ovalbumin) | 3H-TdR take-up (LmCPb antigen; [3]) | 3H-TdR take-up (LmCPb antigen; [4]) | 3H-TdR take-up (LmCPb antigen; [5]) | 3H-TdR take-up (LmCPb antigen; [6]) | 3H-TdR take-up (LmCPb antigen; [7]) | 3H-TdR take-up (LmCPb antigen; [8]) | 3H-TdR take-up (LmCPb antigen; [9]) | 3H-TdR take-up (LmCPb antigen; [10]) | 3H-TdR take-up (LmCPb antigen; [11]) | extent of proliferation, times higher than cultures from mice administered antigen alone (without adjuvant) (LmCPb antigen) | also measured
CCCCCCCCCCCC(=O)O[C@H](CCCCCCCCCCC)CC(=O)NC(CCOP(=O)(O)O)C(=O)NCCCC(COP(=O)(O)O)NC(=O)C[C@H](O)CCCCCCCCCCC (stereo partly drawn) [OM-294-DP, 3-[(R)-3-dodecanoyloxytetradecanoylamino]-4-oxo-5-aza-9-[(R)-3-hydroxytetradecanoylamino]decan-1,10-diol 1, 10-bis(dihydrogenphosphate)] | 6.2 ng eq. LPS/mg | 56 ± 48 EU/mg | greater than that of IFA | almost as high as the response observed with Incomplete Freund's Adjuvant (IFA) | greater than that of IFA | significantly increase | 21.8 ± 2.2 cpm × 10^−3/ml | 61.0 ± 1.7 cpm × 10^−3/ml | 81.5 ± 5.5 cpm × 10^−3/ml | 78.2 ± 7.8 cpm × 10^−3/ml | 135.9 ± 3.7 cpm × 10^−3/ml | 40.9 ± 12.7 cpm × 10^−3/ml | 57.2 ± 10.9 cpm × 10^−3/ml | 70.2 ± 9.2 cpm × 10^−3/ml | 100.0 ± 6.5 cpm × 10^−3/ml | 28 times | –
CCCCCCCCCCCC(=O)O[C@H](CCCCCCCCCCC)CC(=O)NC(CCOP(=O)(O)O)C(=O)NCCCC(CO)NC(=O)C[C@H](O)CCCCCCCCCCC (stereo partly drawn) [OM-294-MP, 3-[(R)-3-dodecanoyloxytetradecanoylamino]-4-oxo-5-aza-9-[(R)-3-hydroxytetradecanoylamino]-decane-1,10-diol 1-dihydrogenphosphate] | 1.4 ng eq. LPS/mg | 13 ± 2 EU/mg | greater than that of IFA | almost as high as the response observed with Incomplete Freund's Adjuvant (IFA) | greater than that of IFA | significantly increase | 17.1 ± 2.5 cpm × 10^−3/ml | 28.4 ± 8.3 cpm × 10^−3/ml | 66.1 ± 4.5 cpm × 10^−3/ml | 68.7 ± 2.3 cpm × 10^−3/ml | 151.4 ± 3.7 cpm × 10^−3/ml | 22.9 ± 2.8 cpm × 10^−3/ml | 34.1 ± 4.1 cpm × 10^−3/ml | 70.3 ± 6.4 cpm × 10^−3/ml | 124.2 ± 12.0 cpm × 10^−3/ml | 23 times | Immunoglobulins specifically raised against ovalbumin of IgG1 subclass (ovalbumin; Day 14): 19 ± 8 Arbitrary units/ml; Immunoglobulins specifically raised against ovalbumin of IgG2a subclass (ovalbumin; Day 14): 11253 ± 12169 Arbitrary units/ml; Immunoglobulins specifically raised against ovalbumin of IgM subclass (ovalbumin; Day 14): 19742 ± 5667 Arbitrary units/ml; Immunoglobulins specifically raised against ovalbumin of IgG1 subclass (ovalbumin; Day 28): 40 ± 69 Arbitrary units/ml; Immunoglobulins specifically raised against ovalbumin of IgG2a subclass (ovalbumin; Day 28): 4192 ± 2104 Arbitrary units/ml; Immunoglobulins specifically raised against ovalbumin of IgM subclass (ovalbumin; Day 28): 9827 ± 2021 Arbitrary units/ml
